According to the NIST ThermoML archive (doi:10.1021/je500980a):

Settings: Liquid

CCCCCCCCCC(=O)OCC [ethyl decanoate]
viscosity [mPa·s]
Settings	293.15 K	313.15 K	333.15 K	353.15 K
101.3 kPa, Falling or rolling sphere viscometry	2.34	1.59	1.16	0.888
101.3 kPa, Quartz crystal resonator	2.33	1.59	1.16	0.893
10000 kPa, Quartz crystal resonator	2.59	1.77	1.28	1
20000 kPa, Falling or rolling sphere viscometry	2.94	1.96	1.44	1.1
20000 kPa, Quartz crystal resonator	2.91	1.97	1.43	1.1
30000 kPa, Quartz crystal resonator	3.22	2.18	1.59	1.21
40000 kPa, Falling or rolling sphere viscometry	3.62	2.38	1.74	1.32
40000 kPa, Quartz crystal resonator	3.57	2.39	1.74	1.32
50000 kPa, Quartz crystal resonator	3.95	2.62	1.87	1.45
60000 kPa, Falling or rolling sphere viscometry	4.4	2.85	2.06	1.56
60000 kPa, Quartz crystal resonator	4.35	2.86	2.07	1.58
70000 kPa, Quartz crystal resonator	4.8	3.14	2.2	1.72
80000 kPa, Falling or rolling sphere viscometry	5.29	3.37	2.42	1.82
80000 kPa, Quartz crystal resonator	5.23	3.44	2.37	1.84
90000 kPa, Quartz crystal resonator	5.74	3.72	2.59	1.98
100000 kPa, Falling or rolling sphere viscometry	6.3	3.96	2.81	2.1
100000 kPa, Quartz crystal resonator	6.25	4.04	2.82	2.13
120000 kPa, Falling or rolling sphere viscometry	7.45	4.62	3.23	2.4
120000 kPa, Quartz crystal resonator	7.46	4.69	3.27	2.42
140000 kPa, Falling or rolling sphere viscometry	8.78	5.35	3.7	2.73
140000 kPa, Quartz crystal resonator	8.83	5.52	3.72	2.74
160000 kPa, Falling or rolling sphere viscometry	10.3	6.18	4.22	3.08
160000 kPa, Quartz crystal resonator	10.7	6.27	4.25	3.14
180000 kPa, Falling or rolling sphere viscometry	12.06	7.11	4.78	3.46
180000 kPa, Quartz crystal resonator	12.4	7.31	4.7	3.53
200000 kPa, Falling or rolling sphere viscometry	14.1	8.16	5.41	3.88
200000 kPa, Quartz crystal resonator	14.5	8.36	5.36	3.98

CCCCCCCCCC(=O)OC [methyl decanoate]
viscosity [mPa·s]
Settings	293.15 K	313.15 K	333.15 K	353.15 K
101.3 kPa, Falling or rolling sphere viscometry	2.15	1.46	1.07	0.825
101.3 kPa, Quartz crystal resonator	2.13	1.5	1.08	0.837
10000 kPa, Quartz crystal resonator	2.36	1.66	1.19	0.927
20000 kPa, Falling or rolling sphere viscometry	2.66	1.83	1.32	1.01
20000 kPa, Quartz crystal resonator	2.62	1.84	1.3	1.02
30000 kPa, Quartz crystal resonator	2.92	2	1.43	1.12
40000 kPa, Falling or rolling sphere viscometry	3.24	2.21	1.58	1.21
40000 kPa, Quartz crystal resonator	3.21	2.2	1.55	1.22
50000 kPa, Quartz crystal resonator	3.53	2.39	1.68	1.31
60000 kPa, Falling or rolling sphere viscometry	3.91	2.65	1.86	1.42
60000 kPa, Quartz crystal resonator	3.87	2.59	1.81	1.42
70000 kPa, Quartz crystal resonator	4.22	2.82	1.97	1.53
80000 kPa, Falling or rolling sphere viscometry	4.67	3.12	2.17	1.64
80000 kPa, Quartz crystal resonator	4.61	3.06	2.11	1.63
90000 kPa, Quartz crystal resonator	5.02	3.29	2.26	1.75
100000 kPa, Falling or rolling sphere viscometry	5.53	3.63	2.5	1.88
100000 kPa, Quartz crystal resonator	5.47	3.56	2.43	1.87
120000 kPa, Falling or rolling sphere viscometry	6.52	4.21	2.86	2.13
120000 kPa, Quartz crystal resonator	6.47	4.1	2.76	2.13
140000 kPa, Falling or rolling sphere viscometry	7.66	4.85	3.26	2.41
140000 kPa, Quartz crystal resonator	7.82	4.75	3.19	2.41
160000 kPa, Falling or rolling sphere viscometry	8.96	5.56	3.7	2.71
160000 kPa, Quartz crystal resonator	9.17	5.43	3.62	2.72
180000 kPa, Falling or rolling sphere viscometry	–	6.35	4.18	3.03
180000 kPa, Quartz crystal resonator	–	6.29	4.07	3.05
200000 kPa, Falling or rolling sphere viscometry	–	7.24	4.7	3.38
200000 kPa, Quartz crystal resonator	–	7.13	4.54	3.41
